Laboratory results: US9969719B2, “Substituted 2-hydrogen-pyrazole derivative serving as anticancer drug” (CHIA TAI TIANQING PHARMACEUTICAL GROUP CO., LTD., priority 2015, dated 2018)
Read-outs that look alike come from different tables or passages of the source.

Tests used:
CDK4/cyclin D1 = target: T1, CDK4/cyclin D1 (Homo sapiens, UniProt P11802); test: CDK4/cyclin D1 Lance Ultra enzyme assay; type: biochemical; settings: for inhibitory activities against CDK4 compared with the reference compounds: versus Palbociclib and LY2835219, in words; for IC50: 350 μM ATP, 180 minutes
T1 construct: purchased Life Technologies
Method: (§1) The experimental materials included CDK2/cyclin A, CDK4/cyclin D1, CDK6/cyclin D1 (Life Technologies); ULight-labeled polypeptide substrates, i.e., ULight-4E-BP1 and ULight-MBP (PerkinElmer); the europium-labeled antibody against anti-myelin basic protein and europium-labeled rabbit antibody (PerkinElmer); and Envision® Multilabel Plate Reader (PerkinElmer) used for signal detection.
(§2) The compounds to be tested were diluted three times so as to be at ten gradually varied concentrations.
(§3) The dilutions of the compounds were dissolved in enzyme buffer, respectively. The components of the buffer included 50 mM hydroxyethylpiperazine ethanesulfonic acid solution (pH 7.5), 1 mM ethylenediaminetetraacetic acid, 10 mM magnesium chloride, 0.01% Brij-35, and 2 mM dithiothreitol. After the reaction started, the OptiPlate 384-well plate was sealed with top heat-sealing film TopSeal-A and incubated at room temperature for 180 minutes. • The Enzyme Reaction System of CDK6/Cyclin D1
(§4) The stop buffer of the enzyme reaction was prepared by dissolving EDTA in a one-fold dilution of the assay buffer. The reaction was terminated at room temperature for 5 minutes. To each of the reaction systems of CDK2/cyclin A, CDK4/cyclin D1 and CDK6/cyclin D1 was added 5 μL assay mixture (provided with antibody the europium-labeled against anti-myelin basic protein and the europium-labeled rabbit antibody, respectively). They were incubated at room temperature for 60 minutes. The reaction signals were detected by the EnVision instrument according to the principle of time-resolved fluorescence resonance energy transfer.

CDK6/cyclin D1 = target: T2, CDK6/cyclin D1 (Homo sapiens, UniProt Q00534); test: CDK6/cyclin D1 Lance Ultra enzyme assay; type: biochemical; settings: for IC50: 250 μM ATP, 180 minutes; for inhibitory activities against CDK6 compared with the reference compounds: versus Palbociclib and LY2835219, in words
T2 construct: purchased Life Technologies
Method: as §1, §2
as §3, with “minutes.” for “minutes. • The Enzyme Reaction System of CDK6/Cyclin D1”
as §4

MCF-7 cells = test: MCF-7 cell proliferation (CellTiter-Glo, 6 days); type: cell-based, human; settings: for IC50: Homo sapiens, MCF7, proliferation, 6 days; for MCF-7/MDA-MB-436: ratio of the proliferation IC50 values; for inhibitory activities against the proliferation of MCF-7 cells compared with the reference compounds: versus Palbociclib and LY2835219, in words
Method: EnVision® Multilabel Plate Reader (PerkinElmer) was used.
MCF-7 cells were inoculated in a black 384-well plate by adding 45 μL of the cell suspension (containing 200 of MCF-7 cells) to each of the wells. The plate was incubated overnight in a carbon dioxide incubator.
(§5) A duplicate well test was performed. The medium was added to the middle plate in an amount of 49 μL per well. The gradient dilutions of the compounds were transferred in an amount of 1 μL per well to the middle plate at the corresponding positions, and the mixture was mixed and transferred to the cell plate in an amount of 5 μL per well. The cell plate was incubated in a carbon dioxide incubator for 6 days. Promega CellTiter-Glo reagent was added to the cell plate in an amount of 25 μL per well. The cell plate was incubated at room temperature for 10 minutes to stabilize the luminescence signal. EnVision® Multilabel Plate Reader (PerkinElmer) was used for signal detection.

MDA-MB-436 cells = test: MDA-MB-436 cell proliferation (CellTiter-Glo); type: cell-based; settings: Homo sapiens
Method: RPMI 1640 medium, fetal bovine serum, penicillin/streptomycin were purchased from Promega (Madison, Wis.). The MCF-7 cell line and the MDA-MB-436 cell line were purchased from the European Collection of Authenticated Cell Cultures (ECACC). EnVision® Multilabel Plate Reader (PerkinElmer) was used.
as §5, with “The compounds to be tested were diluted three times using Bravo to the tenth concentration, i.e., diluted from 10 μM to 0.508 nM. A” for “A”
The IC50 values were obtained by curve fitting using four parameters (obtained from the 205 mode in XLFIT5, iDBS). Table 1 provides the inhibitory activities of the compounds of the invention against the proliferation of MCF-7 cells and MDA-MB-436 cells.

[1] = tested on: human breast cancer cell line MCF-7; type: in vivo; settings: for Tomor volumes: 25.0 mg/kg orally daily
Method: The in vivo pharmacodynamic study was carried out in human-based tumor cell line-derived xenografted (CDX) BALB/c nude mice, in which were subcutaneously implanted human breast cancer cell line MCF-7.
. All the cages, matts and water were disinfected before use. All the animals had free access to a standard certified commercial laboratory diet. A total of 100 mice were purchased from Shanghai BK Laboratory Animal Co., LTD for study. An estrogen tablet ([…], sustained release within 60 days) was subcutaneously implanted in the left next abdomen of each mice. After 3 days, the tumor cells (10×10^6 in 0.2 mL of phosphate buffer) were subcutaneously implanted in the right next abdomen of each mice for the tumor growth. The administration started when the average tumor volume reached about 150-200 mm^3. The test compounds were orally administered daily, the doses were shown as Table 5. The tumor volumes were measured with a two-dimensional caliper every three days, the volumes were expressed in cubic millimeters and calculated by the formula V=0.5a×b^2, wherein a and b were the major diameter and minor diameter of the tumor, respectively. Antitumor efficacy was determined by dividing an average increase of the tumor volumes of the animals treated with the compounds by an increase of the tumor volumes of the untreated animals.

CDK2/cyclin A = target: T3, CDK2/cyclin A (Homo sapiens, UniProt P24941); test: CDK2/cyclin A Lance Ultra enzyme assay; type: biochemical; settings: 25 μM ATP, 60 minutes
T3 construct: purchased Life Technologies
Method: as §1, §2
as §3, with “The gradient dilutions of” for “The dilutions of”, “temperature for 60 minutes. •” for “temperature for 180 minutes. •”, “System of CDK4/Cyclin D1” for “System of CDK6/Cyclin D1”
as §4

[2] = Study of brain permeability after oral administration; type: in vivo, SD rats; settings: rat, versus Palbociclib and LY2835219, in words; b797: 0.5 hour and 2 hour
Method: SD rats were used as the test animals.
Twelve healthy 7- to 9-week-old adult male SD rats were purchased from Shanghai Slack Laboratory Animal Co., Ltd. A proper amount of the test compound was weighed to prepare a 0.5% methylcellulose suspension at 1 mg/mL. The rats received a single oral dose of 10 mg/kg. 0.5 h, 2 h, 8 h, and 24 hours after the administration, 3 rats were respectively killed, and their whole blood and brain tissues were collected. The plasma was prepared by centrifuging the whole blood (3000 g, 15 minutes, 4° C.). The samples of brain homogenate were prepared by mixing the brain tissues with a mixture of methanol and a phosphate buffer (methanol:phosphate buffer=1:2) as homogenate at a ratio of 5:1. The drug concentration of each sample was determined by LC/MS/MS, and AUC was calculated to evaluate the exposure.

Caco-2 monolayer cells = test: Caco-2 cell bi-directional permeability assessment; settings: Caco-2
Method: The standard experimental conditions were as follows: • Test concentration: 2 μM (DMSO≤1%); • Number of replication: n=2; • Direction: bi-directional transportation, including two directions, i.e., A→B and B→A; • Incubation time: single time point, 2 hours; • Transport buffer: HBSS, pH 7.4; • Incubation conditions: 37° C., 5% CO2.
After the incubation, sample solutions taken from the dosing wells and the receiving wells were immediately mixed with a cold acetonitrile solution containing the internal standard. Concentrations of the test compounds in all samples (including the initial dosing solutions, the supernatants of the dosing wells and the receiving solutions) were determined by a LC/MS/MS method. The apparent permeability coefficients, the efflux ratios and other parameters were calculated.

T1 sequence (P11802 whole entry): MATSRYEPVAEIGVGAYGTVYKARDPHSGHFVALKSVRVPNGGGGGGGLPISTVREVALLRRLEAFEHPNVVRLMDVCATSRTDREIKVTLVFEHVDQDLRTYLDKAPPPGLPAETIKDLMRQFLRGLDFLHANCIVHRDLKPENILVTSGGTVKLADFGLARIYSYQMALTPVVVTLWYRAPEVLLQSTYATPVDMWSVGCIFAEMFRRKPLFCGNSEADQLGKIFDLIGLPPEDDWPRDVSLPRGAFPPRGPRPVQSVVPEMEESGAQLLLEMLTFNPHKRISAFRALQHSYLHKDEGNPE
T1 sequence (P24385 whole entry partner): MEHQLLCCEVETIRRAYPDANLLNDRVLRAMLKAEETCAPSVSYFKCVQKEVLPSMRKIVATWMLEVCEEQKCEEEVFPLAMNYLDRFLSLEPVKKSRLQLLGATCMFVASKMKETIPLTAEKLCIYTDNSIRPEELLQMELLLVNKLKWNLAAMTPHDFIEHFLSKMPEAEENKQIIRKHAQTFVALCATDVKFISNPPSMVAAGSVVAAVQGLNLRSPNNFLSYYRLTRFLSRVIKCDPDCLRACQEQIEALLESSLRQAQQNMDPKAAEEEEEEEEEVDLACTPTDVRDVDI
T2 sequence (Q00534 whole entry): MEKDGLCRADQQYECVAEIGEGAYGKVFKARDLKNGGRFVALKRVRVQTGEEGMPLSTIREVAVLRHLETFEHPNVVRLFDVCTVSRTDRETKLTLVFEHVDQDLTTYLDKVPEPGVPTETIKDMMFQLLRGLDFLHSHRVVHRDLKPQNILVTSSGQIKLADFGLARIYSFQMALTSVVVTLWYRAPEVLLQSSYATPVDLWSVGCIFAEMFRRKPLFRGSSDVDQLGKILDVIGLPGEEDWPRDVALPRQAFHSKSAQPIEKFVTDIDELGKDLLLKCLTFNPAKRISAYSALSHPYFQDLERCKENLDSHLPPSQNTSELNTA
T2 sequence (P24385 whole entry partner): as the sequence (P24385 whole entry partner) above

Compound | inhibitory activities against CDK4 compared with the reference compounds (CDK4/cyclin D1) | IC50 (CDK6/cyclin D1) [µM] | inhibitory activities against CDK6 compared with the reference compounds (CDK6/cyclin D1) | IC50 (MCF-7 cells) [µM] | IC50 (MDA-MB-436 cells) [µM] | IC50 (CDK4/cyclin D1) [µM] | IC50 (CDK2/cyclin A) [µM] | exposure in brain tissue compared with the reference compounds [2] | Classification Substrates of efflux transporters (Caco-2 monolayer cells) | MCF-7/MDA-MB-436 (MCF-7 cells) | Tomor volumes ([1]; 0 day) [mm^3] | Tomor volumes ([1]; 7th day) [mm^3] | Tomor volumes ([1]; 14th day) [mm^3] | Tomor volumes ([1]; 21st day) [mm^3] | antitumor activities in the CDX model of MCF-7 breast cancer ([1]; in words) | inhibitory activities against the proliferation of MCF-7 cells compared with the reference compounds (MCF-7 cells)
CC(C)c1c2cc(-c3nc(Nc4ccc(N5CCNCC5)cn4)ncc3F)ccc2nn1C [Example 3, 5-fluoro-4-(3-isopropyl-2-methyl-2H-indazol-5-yl)-N-(5-(piperazin-1-yl)pyridin-2-yl) pyrimidine-2-amine] | higher inhibitory activities | < 0.0008 | higher inhibitory activities | 0.0321 | 0.328 | – | – | – | – | 10.2 | 187 | 249 | 288 | 432 | significant antitumor activities | –
CC(C)c1c2cc(-c3nc(Nc4ccc(N5CCN(CCO)CC5)cn4)ncc3F)ccc2nn1C [Example 10, 2-[4-[6-[[5-fluoro-4-(3-isopropyl-2-methyl-2H-indazol-5-yl)pyrimidin-2-yl]amino]-3-pyridyl]piperazin-1-yl]ethanol] | higher inhibitory activities | 0.00097 | higher inhibitory activities | 0.0289 | 0.496 | 0.00088 | 0.00662 | – | – | 17.2 | – | – | – | – | – | higher inhibitory activities
CC(C)c1c2cc(-c3nc(Nc4ccc(C5CCNCC5)cn4)ncc3F)ccc2nn1C [Example 13, 5-fluoro-4-(3-isopropyl-2-methyl-2H-indazol-5-yl)-N-[5-(piperidin-4-yl)-2-pyridyl]pyrimidine-2-amine] | – | – | – | – | – | – | – | much higher | not a substrate of an efflux transporter | – | – | – | – | – | – | –

Second part, led by results:

inhibitory activities against CDK4 compared with the reference compounds (CDK4/cyclin D1) | IC50 (CDK6/cyclin D1) [µM] | inhibitory activities against CDK6 compared with the reference compounds (CDK6/cyclin D1) | IC50 (MCF-7 cells) [µM] | IC50 (MDA-MB-436 cells) [µM] | IC50 (CDK4/cyclin D1) [µM] | IC50 (CDK2/cyclin A) [µM] | exposure in brain tissue compared with the reference compounds [2] | Classification Substrates of efflux transporters (Caco-2 monolayer cells) | Compound | MCF-7/MDA-MB-436 (MCF-7 cells) | Tomor volumes ([1]; 0 day) [mm^3] | Tomor volumes ([1]; 7th day) [mm^3] | Tomor volumes ([1]; 14th day) [mm^3] | Tomor volumes ([1]; 21st day) [mm^3] | antitumor activities in the CDX model of MCF-7 breast cancer ([1]; in words) | inhibitory activities against the proliferation of MCF-7 cells compared with the reference compounds (MCF-7 cells)
higher inhibitory activities | < 0.0008 | higher inhibitory activities | 0.045 | 0.667 | 0.00031 | 0.00595 | – | – | CC(C)c1c2cc(-c3nc(Nc4ccc(N5CCN(CCN)CC5)cn4)ncc3F)ccc2nn1C [Example 9, N-[5-[4-(2-aminoethyl)piperazin-1-yl]-2-pyridyl]-5-fluoro-4-(3-isopropyl-2-methyl-2H-indazol-5-yl)pyrimidine-2-amine] | 14.8 | – | – | – | – | – | higher inhibitory activities
higher inhibitory activities | < 0.0008 | higher inhibitory activities | 0.056 | 0.522 | < 0.0003 | 0.00282 | – | – | CC(C)c1c2cc(-c3nc(Nc4ccc(N5C[C@@H]6C[C@H]5CN6)cn4)ncc3F)ccc2nn1C [Example 15, N-(5-((1 S,4S)-2,5-diazabicyclo[2.2.1]heptan-2-yl)pyridin-2-yl)-5-fluoro-4-(3-isopropyl-2-methyl-2H-indazol-5-yl)pyrimidine-2-amine] | 9.3 | – | – | – | – | – | higher inhibitory activities
– | 0.00579 | – | 0.265 | 3.28 | 0.00138 | 0.0328 | – | – | CC(C)c1c2c(nn1C)CCN(c1nc(Nc3ccc(C4CCN(C)CC4)cn3)ncc1F)C2 [Example 24] | 12.4 | – | – | – | – | – | –
